Laboratory results as given in patent US10160785B2, “Antimicrobial peptides and their use for the treatment of topical infections” (priority 2015, dated 2018).

How the values were obtained:
in vitro = details: human
In short: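 Hemolysis expressed as LC50, the concentration giving 50% erythrocyte lysis. Supernatant A540 was scaled between buffer-only blank and 0.2% Triton X100 total lysis after 1 h, 37 °C exposure of 5% v/v human red cells to 2-200 μmol.l^−1 peptide in physiological solution.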

P. aeruginosa (Liberec) = assay: Synergistic effect of peptides with antibiotics, FIC index; assay type: cell-based, Pseudomonas aeruginosa; details: FIC <0.5 synergism, 0.5-2 additive, >2 antagonism, averages of three experiments; for FIC indexes (fractional inhibitory concentration) Combination with RIF against P. aeruginosa: peptide combined with rifampicin; for FIC indexes (fractional inhibitory concentration) Combination with TET against P. aeruginosa: peptide combined with tetracycline
Protocol: (§1) MICs values of various combinations of two fold serial dilutions of peptides and antibiotics were determined using the same methodology as in the case of antimicrobial activity determination (Example 2). To consider the type of the final effect, FIC indexes (fractional inhibitory concentration) were used and calculated as follows:
(§2) [formula] where MICPC and MICAC are the MICs of the peptide and antibiotic in combination, respectively, and MICP and MICA are the MICs of the peptide and antibiotic tested alone, respectively. FIC<0.5 were considered as synergy, 0.5≤FIC≤2 as addition effect, and FIC>2 as antagonism.

[1] = tested on: Candida albicans ATCC MYA-2876; assay: microbe, parasite or virus in culture; assay type: cell-based; details: RPMI broth microdilution, 35° C., 48 hours, visual
In short: (§3)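 Broth microdilution in RPMI 1640 with 0.165 mol.l^−1 MOPS; peptide dilutions of 0.625–160 μmol.l^−1 were added to wells, then inoculum at 5×10^2–2.5×10^3 CFU/ml final. Plates were incubated unshaken at 35 °C. MIC was read visually at 48 h as the lowest concentration without visible growth.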

[2] = tested on: Candida tropicalis ATCC 750; assay: microbe, parasite or virus in culture; assay type: cell-based; details: RPMI broth microdilution, 35° C., 48 hours, visual
In short: as §3

[3] = tested on: Candida glabrata ATCC 2001; assay: microbe, parasite or virus in culture; assay type: cell-based; details: RPMI broth microdilution, 35° C., 48 hours, visual
In short: as §3

[4] = tested on: Candida dubliniensis ATCC MYA-646; assay: microbe, parasite or virus in culture; assay type: cell-based; details: RPMI broth microdilution, 35° C., 48 hours, visual
In short: as §3

[5] = tested on: Candida albicans (Olomouc); assay: microbe, parasite or virus in culture; assay type: cell-based; details: RPMI broth microdilution, 35° C., 48 hours, visual
In short: as §3

Candida glabrata DSY 565 = assay: microbe, parasite or virus in culture; assay type: cell-based; details: RPMI broth microdilution, 35° C., 48 hours, visual
In short: as §3

Candida krusei ATCC 6258 = assay: microbe, parasite or virus in culture; assay type: cell-based; details: RPMI broth microdilution, 35° C., 48 hours, visual
In short: as §3

[6] = tested on: Enterococcus faecalis Motol; details: BHI medium, 37° C., 20 h
Protocol: (§4) Gram-positive bacteria (Micrococcus luteus, Bacillus subtilis, Staphylococcus aureus, Staphylococcus epidermidis and Enterococcus faecalis), Gram-negative bacteria (Escherichia coli and Pseudomonas aeruginosa) and the yeast (Candida albicans) were grown to exponential phase and then were diluted with fresh medium. BHI medium (Oxoid, Great Britain) was used for Enterococcus faecalis; YPD medium containing yeast extract peptone and glucose was used for Candida albicans and LB medium (Sigma, Czech Republic) was used for the remaining microorganisms. Then the microorganisms were added to the solutions of the tested antimicrobial peptides in LB medium in multi-well plates. The final peptide concentration it the wells was in the range of 0.1 to 100 μmol.l^−1. That was made by twofold serial dilution from the peptide stock solution (1 mmol.l^−1). The plates were incubated at 37° C. for 20 h while being continuously shaken in a Bioscreen C (Oy Growth Curves AB Ltd., Helsinki, Finland). Absorbance was measured at 540 nm every 15 min. Antimicrobial activity (Table 2) was determined as a quantitative minimum inhibitory concentration (MIC) by observing bacterial growth in the presence of different concentrations of tested peptides. In the experiments ca 10^5 CFU of bacteria or candida per well were routinely used.
(§5) Multiresistant clinical isolates of bacteria were obtained from University Hospital in Motol, Prague, Czech Republic and from Liberec Regional Hospital, Czech Republic. Methicillin resistant Staphylococcus aureus (MRSA) 6271 and Pseudomonas aeruginosa 5482 were from the Czech National Collection of Type Cultures, the National Institute of Public Health, Prague, Czech Republic. Other bacteria were from the Czech Collection of Microorganisms, Brno, Czech Republic. Candida albicans came from the Faculty of Medicine, Palacky University, Olomouc, Czech Republic.

[7] = tested on: Staphylococcus aureus Motol; details: Staphylococcus aureus Motol clinical isolate; 37° C., 20 h
Protocol: as §4, §5

[8] = tested on: Staphylococcus epidermidis Motol; details: 37° C., 20 h
Protocol: as §4, §5

[9] = tested on: Methicillin resistant Staphylococcus aureus (MRSA) 6271; details: 37° C., 20 h
Protocol: as §4, §5

[10] = tested on: Pseudomonas aeruginosa Liberec; details: Pseudomonas aeruginosa Liberec; 37° C., 20 h
Protocol: as §4, §5

Escherichia coli = details: 37° C., 20 h
Protocol: as §4, §5

Bacillus subtilis = details: Bacillus subtilis; 37° C., 20 h
Protocol: as §4, §5

[11] = tested on: Pseudomonas aeruginosa 5482; details: 37° C., 20 h
Protocol: as §4, §5

Micrococcus luteus = details: Micrococcus luteus; 37° C., 20 h
Protocol: as §4, §5

[12] = tested on: Staphylococcus aureus Liberec; details: Staphylococcus aureus Liberec clinical isolate; 37° C., 20 h
Protocol: as §4, §5

Candida albicans Olomouc = details: Candida albicans Olomouc; YPD medium; 37° C., 20 h (Example 2)
Protocol: as §4, §5

S. aureus (Liberec) = assay: Synergistic effect of peptides with antibiotics, FIC index; assay type: cell-based, Staphylococcus aureus; details: peptide combined with amoxicillin; FIC <0.5 synergism, 0.5-2 additive, >2 antagonism; averages of three experiments
Protocol: as §1, §2

Substance | HC50 at 1 h (in vitro) | FIC indexes (fractional inhibitory concentration) Combination with RIF against P. aeruginosa (P. aeruginosa (Liberec)) | FIC indexes (fractional inhibitory concentration) Combination with TET against P. aeruginosa (P. aeruginosa (Liberec)) | Antifungal activity MIC C. albicans ATCC MYA-2876 [1] | Antifungal activity MIC C. tropicalis ATCC 750 [2] | Antifungal activity MIC C. glabrata ATCC 2001 [3] | Antifungal activity MIC C. dubliniensis ATCC MYA-646 [4] | Antifungal activity MIC C. albicans Olomouc [5] | Antifungal activity MIC C. glabrata DSY 565 (Candida glabrata DSY 565) | Antifungal activity MIC C. krusei ATCC 6258 (Candida krusei ATCC 6258) | Antimicrobial activity MIC E. f. Motol [6] | Antimicrobial activity MIC S. a. Motol [7] | Antimicrobial activity MIC S. e. Motol [8] | Antimicrobial activity MIC S. a. 6271 [9] | Antimicrobial activity MIC P. a. Liberec [10] | Antimicrobial activity MIC E. c. (Escherichia coli) | Antimicrobial activity MIC B. s. (Bacillus subtilis) | Antimicrobial activity MIC P. a. 5482 [11] | Antimicrobial activity MIC M. l. (Micrococcus luteus) | Antimicrobial activity MIC S. a. Liberec [12] | further results
H-GILKSLLKKLKKIIAK-NH2 [X] | > 400 µM | 0.333 | 0.521 | 17.0 µM | 1.0 µM | 34.0 µM | 14.0 µM | 10.5 µM | 71.1 µM | 5.0 µM | 76.7 µM | 10.0 µM | 2.2 µM | 16.5 µM | 8.9 µM | 10.0 µM | 1.5 µM | 5.0 µM | 1.4 µM | 4.3 µM | Antimicrobial activity MIC C. a. Olomouc (Candida albicans Olomouc): 24.0 µM; FIC indexes (fractional inhibitory concentration) Combination with AMX against S. aureus (S. aureus (Liberec)): 0.542
H-GIWSSLLKKLKKIIAK-NH2 [XIV] | 165 µM | 0.271 | 0.354 | 10.0 µM | 1.2 µM | 19.1 µM | 9.0 µM | 8.2 µM | 48.0 µM | 5.2 µM | 46.0 µM | 5.3 µM | 1.5 µM | 20.0 µM | 21.0 µM | 1.6 µM | 0.8 µM | 6.3 µM | 0.8 µM | 4.6 µM | Antimicrobial activity MIC C. a. Olomouc (Candida albicans Olomouc): 16.0 µM; FIC indexes (fractional inhibitory concentration) Combination with AMX against S. aureus (S. aureus (Liberec)): 0.396
H-KILSSLLKKLKKIIAK-NH2 [VI] | 364 µM | 0.260 | 0.708 | 20.0 µM | 0.9 µM | 28.0 µM | 12.0 µM | 12.0 µM | 71.1 µM | 4.8 µM | 32.5 µM | 10.0 µM | 1.4 µM | 32.0 µM | 16.0 µM | 16.0 µM | 1.3 µM | 5.0 µM | 1.0 µM | 5.5 µM | Antimicrobial activity MIC C. a. Olomouc (Candida albicans Olomouc): 25.3 µM; FIC indexes (fractional inhibitory concentration) Combination with AMX against S. aureus (S. aureus (Liberec)): 0.292
H-GILSKLLKKLKKIIAK-NH2 [XI] | > 400 µM | 0.344 | 0.646 | 20.0 µM | 1.0 µM | 26.0 µM | 10.5 µM | 12.0 µM | 40.0 µM | 5.0 µM | 72.7 µM | 10.0 µM | 1.8 µM | 22.7 µM | 8.5 µM | 17.5 µM | 1.4 µM | 4.5 µM | 1.6 µM | 5.9 µM | Antimicrobial activity MIC C. a. Olomouc (Candida albicans Olomouc): 45.3 µM; FIC indexes (fractional inhibitory concentration) Combination with AMX against S. aureus (S. aureus (Liberec)): 0.333
H-GILSSWLKKLKKIIAK-NH2 [XV] | > 400 µM | 0.396 | 0.646 | 17.0 µM | 1.2 µM | 40.0 µM | 22.0 µM | 21.0 µM | 88.9 µM | 8.0 µM | 73.3 µM | 16.2 µM | 2.0 µM | 16.0 µM | 5.9 µM | 11.0 µM | 1.6 µM | 4.0 µM | 1.6 µM | 6.6 µM | Antimicrobial activity MIC C. a. Olomouc (Candida albicans Olomouc): 16.7 µM; FIC indexes (fractional inhibitory concentration) Combination with AMX against S. aureus (S. aureus (Liberec)): 0.375
